Experimental data from patent publication US20130157954A1, “METHODS FOR TREATMENT OR PROPHYLAXIS OF KIDNEY OR LIVER DYSFUNCTION” (NPS PHARMACEUTICALS, INC., priority 2010, published 2013).

Test: Example 2: liver biomarkers (albumin, gamma glutamyl transferase, total bilirubin, ALT, AST, ALP) in short bowel syndrome patients, every four weeks for 24 weeks; also sorted by >10% change from baseline
Assay type: in vivo, Human
Conditions: 0.05 mg/kg/d; for Alkaline Phosphatase: subjects Within 10% of Baseline / Alkaline Phosphatase: subjects with >10% decrease from Baseline / Alkaline Phosphatase: subjects with >10% increase from Baseline / Bilirubin: subjects Within 10% of Baseline / Bilirubin: subjects with >10% decrease from Baseline / Bilirubin: subjects with >10% increase from Baseline / ALT: subjects Within 10% of Baseline / ALT: subjects with >10% decrease from Baseline / ALT: subjects with >10% increase from Baseline / AST: subjects Within 10% of Baseline / AST: subjects with >10% decrease from Baseline / AST: subjects with >10% increase from Baseline / Albumin: subjects Within 10% of Baseline / Albumin: subjects with >10% decrease from Baseline / Albumin: subjects with >10% increase from Baseline: m = 38
Protocol: To further confirm the results of Example 1, a further study was conducted involving more individuals and additional diagnostic biomarkers. Human patients with short bowel syndrome were divided into two groups: a control group (43 total individuals) to receive placebo, and an experimental group (42 total individuals) to receive teduglutide at 0.05 mg/kg/day throughout the study. Patients were treated by subcutaneous injection of placebo or the appropriate dose of teduglutide. Known biomarkers of liver function were monitored every four weeks, for 24 weeks. The liver biomarkers tested included albumin, gamma glutamyl transferase, total bilirubin, ALT and AST and ALP. Before administration of placebo or teduglutide, diagnostic biomarker levels were tested to establish a baseline for each individual.
To determine the effect of GLP-2 on the levels of the diagnostic biomarkers, the average level of each biomarker was measured for the placebo and teduglutide treated groups for each visit. Furthermore, the average change from baseline was calculated using the established baseline values. For FIGS. 17-28, p-values were calculated using the t-test.
P values are provided, which were calculated for each distribution of biomarker changes for each week using the chi-squared test.

CC[C@H](C)[C@H](NC(=O)[C@H](Cc1ccccc1)NC(=O)[C@H](CC(=O)O)NC(=O)[C@H](CCCNC(=N)N)NC(=O)[C@H](C)NC(=O)[C@H](C)NC(=O)[C@H](CC(C)C)NC(=O)[C@H](CC(N)=O)NC(=O)[C@H](CC(=O)O)NC(=O)[C@H](CC(C)C)NC(=O)[C@@H](NC(=O)[C@@H](NC(=O)[C@H](CC(N)=O)NC(=O)[C@H](CCSC)NC(=O)[C@H](CCC(=O)O)NC(=O)[C@H](CC(=O)O)NC(=O)[C@H](CO)NC(=O)[C@H](Cc1ccccc1)NC(=O)[C@H](CO)NC(=O)CNC(=O)[C@H](CC(=O)O)NC(=O)CNC(=O)[C@@H](N)Cc1c[nH]cn1)[C@@H](C)O)[C@@H](C)CC)C(=O)N[C@@H](CC(N)=O)C(=O)N[C@@H](Cc1c[nH]c2ccccc12)C(=O)N[C@@H](CC(C)C)C(=O)N[C@H](C(=O)N[C@@H](CCC(N)=O)C(=O)N[C@H](C(=O)N[C@@H](CCCCN)C(=O)N[C@H](C(=O)N[C@H](C(=O)N[C@@H](CC(=O)O)C(=O)O)[C@@H](C)O)[C@@H](C)CC)[C@@H](C)O)[C@@H](C)CC [teduglutide]
Alkaline Phosphatase: subjects Within 10% of Baseline (Week 16): 7 (18.4%) n (%) | Alkaline Phosphatase: subjects with >10% decrease from Baseline (Week 16): 23 (60.5%) n (%) | Alkaline Phosphatase: subjects with >10% increase from Baseline (Week 16): 8 (21.1%) n (%) | Bilirubin: subjects Within 10% of Baseline (Week 16): 5 (13.2%) n (%) | Bilirubin: subjects with >10% decrease from Baseline (Week 16): 24 (63.2%) n (%) | Bilirubin: subjects with >10% increase from Baseline (Week 16): 9 (23.7%) n (%) | ALT Change from Baseline, Max (Week 20): 24 U/L | ALT Change from Baseline, Median (Week 20): −6.5 U/L | ALT Change from Baseline, Min (Week 20): −55 U/L | ALT Observed Value, Max (Week 20): 149 U/L | ALT Observed Value, Min (Week 20): 5 U/L | AST Change from Baseline, Max (Week 20): 10 U/L | AST Change from Baseline, Mean (Week 20): −4.2 U/L | AST Change from Baseline, Median (Week 20): −2.5 U/L | AST Change from Baseline, Min (Week 20): −38 U/L | AST Observed Value, Max (Week 20): 77 U/L | AST Observed Value, Min (Week 20): 10 U/L | Albumin Change from Baseline, Max (Week 20): 4 g/L | Albumin Change from Baseline, Mean (Week 20): -0.6 g/L | Albumin Change from Baseline, Median (Week 20): -1 g/L | Albumin Change from Baseline, Min (Week 20): -8 g/L | Albumin Observed Value, Max (Week 20): 49 g/L | Albumin Observed Value, Median (Week 20): 43 g/L | Albumin Observed Value, Min (Week 20): 33 g/L | Alkaline Phosphatase Change from Baseline, Max (Week 20): 77 U/L | Alkaline Phosphatase Change from Baseline, Min (Week 20): −117 U/L | Alkaline Phosphatase Observed Value, Max (Week 20): 303 U/L | Alkaline Phosphatase Observed Value, Min (Week 20): 54 U/L | Bilirubin Change from Baseline, Max (Week 20): 2.8 µmol/L | Bilirubin Change from Baseline, Median (Week 20): -1.7 µmol/L | Bilirubin Change from Baseline, Min (Week 20): -25.5 µmol/L | Bilirubin Observed Value, Max (Week 20): 31.9 µmol/L | Bilirubin Observed Value, Min (Week 20): 3.7 µmol/L | Gamma Glutamyl Transferase Change from Baseline, Max (Week 20): 57 U/L | Gamma Glutamyl Transferase Change from Baseline, Mean (Week 20): −9.6 U/L | Gamma Glutamyl Transferase Change from Baseline, Median (Week 20): −8 U/L | Gamma Glutamyl Transferase Change from Baseline, Min (Week 20): −146 U/L | Gamma Glutamyl Transferase Observed Value, Max (Week 20): 261 U/L | Gamma Glutamyl Transferase Observed Value, Min (Week 20): 8 U/L | ALT: subjects Within 10% of Baseline (Week 20): 10 (26.3%) n (%) | ALT: subjects with >10% decrease from Baseline (Week 20): 23 (60.5%) n (%) | ALT: subjects with >10% increase from Baseline (Week 20): 5 (13.2%) n (%) | AST: subjects Within 10% of Baseline (Week 20): 11 (28.9%) n (%) | AST: subjects with >10% decrease from Baseline (Week 20): 20 (52.6%) n (%) | AST: subjects with >10% increase from Baseline (Week 20): 7 (18.4%) n (%) | Albumin: subjects Within 10% of Baseline (Week 20): 37 (97.4%) n (%) | Albumin: subjects with >10% decrease from Baseline (Week 20): 1 (2.6%) n (%) | Albumin: subjects with >10% increase from Baseline (Week 20): 0 n (%) | Alkaline Phosphatase: subjects Within 10% of Baseline (Week 20): 12 (31.6%) n (%) | Alkaline Phosphatase: subjects with >10% decrease from Baseline (Week 20): 23 (60.5%) n (%) | Alkaline Phosphatase: subjects with >10% increase from Baseline (Week 20): 3 (7.9%) n (%) | Bilirubin: subjects Within 10% of Baseline (Week 20): 5 (13.2%) n (%) | Bilirubin: subjects with >10% decrease from Baseline (Week 20): 25 (65.8%) n (%) | Bilirubin: subjects with >10% increase from Baseline (Week 20): 8 (21.1%) n (%) | ALT Change from Baseline, Max (Week 24): 21 U/L | ALT Change from Baseline, Median (Week 24): −7.5 U/L | ALT Change from Baseline, Min (Week 24): −60 U/L | ALT Observed Value, Max (Week 24): 91 U/L | ALT Observed Value, Min (Week 24): 7 U/L | AST Change from Baseline, Max (Week 24): 14 U/L | AST Change from Baseline, Mean (Week 24): −5.8 U/L | AST Change from Baseline, Median (Week 24): −5 U/L | AST Change from Baseline, Min (Week 24): −47 U/L | AST Observed Value, Max (Week 24): 73 U/L | AST Observed Value, Median (Week 24): 23 U/L | AST Observed Value, Min (Week 24): 11 U/L | Albumin Change from Baseline, Max (Week 24): 3 g/L | Albumin Change from Baseline, Mean (Week 24): -0.4 g/L | Albumin Change from Baseline, Median (Week 24): 0 g/L | Albumin Change from Baseline, Min (Week 24): -8 g/L | Albumin Observed Value, Max (Week 24): 48 g/L | Albumin Observed Value, Median (Week 24): 42 g/L | Albumin Observed Value, Min (Week 24): 33 g/L | Alkaline Phosphatase Change from Baseline, Max (Week 24): 33 U/L | Alkaline Phosphatase Change from Baseline, Min (Week 24): −122 U/L | Alkaline Phosphatase Observed Value, Max (Week 24): 328 U/L | Alkaline Phosphatase Observed Value, Median (Week 24): 88 U/L | Alkaline Phosphatase Observed Value, Min (Week 24): 49 U/L | Bilirubin Change from Baseline, Max (Week 24): 3.3 µmol/L | Bilirubin Change from Baseline, Min (Week 24): -26.1 µmol/L | Bilirubin Observed Value, Max (Week 24): 31.3 µmol/L | Bilirubin Observed Value, Median (Week 24): 6.8 µmol/L | Bilirubin Observed Value, Min (Week 24): 2.5 µmol/L | Gamma Glutamyl Transferase Change from Baseline, Max (Week 24): 46 U/L | Gamma Glutamyl Transferase Change from Baseline, Median (Week 24): −6 U/L | Gamma Glutamyl Transferase Change from Baseline, Min (Week 24): −144 U/L | Gamma Glutamyl Transferase Observed Value, Max (Week 24): 228 U/L | Gamma Glutamyl Transferase Observed Value, Min (Week 24): 7 U/L | ALT: subjects Within 10% of Baseline (Week 24): 10 (26.3%) n (%) | ALT: subjects with >10% decrease from Baseline (Week 24): 24 (63.2%) n (%) | ALT: subjects with >10% increase from Baseline (Week 24): 4 (10.5%) n (%) | AST: subjects Within 10% of Baseline (Week 24): 8 (21.1%) n (%) | AST: subjects with >10% decrease from Baseline (Week 24): 24 (63.2%) n (%) | AST: subjects with >10% increase from Baseline (Week 24): 6 (15.8%) n (%) | Albumin: subjects Within 10% of Baseline (Week 24): 36 (94.7%) n (%) | Albumin: subjects with >10% decrease from Baseline (Week 24): 2 (5.3%) n (%) | Albumin: subjects with >10% increase from Baseline (Week 24): 0 n (%) | Alkaline Phosphatase: subjects Within 10% of Baseline (Week 24): 9 (23.7%) n (%) | Alkaline Phosphatase: subjects with >10% decrease from Baseline (Week 24): 23 (60.5%) n (%) | Alkaline Phosphatase: subjects with >10% increase from Baseline (Week 24): 6 (15.8%) n (%) | Bilirubin: subjects Within 10% of Baseline (Week 24): 6 (15.8%) n (%) | Bilirubin: subjects with >10% decrease from Baseline (Week 24): 26 (68.4%) n (%) | Bilirubin: subjects with >10% increase from Baseline (Week 24): 6 (15.8%) n (%)
